For two compounds, Ki results are on record in BindingDB's records for patent US9675697 (University of Michigan, 2017).

In this experiment the target is Bromodomain-containing protein 4 (Homo sapiens, UniProt O60885). Briefly: FP Competitive Binding Assay (No.350). The note with it: 25 °C. How it is done:
Fluorescence Polarization (FP) competitive binding studies (see above) were carried out using the FAM labeled fluorescent probe Cpd. No. 350 to determine binding affinities of representative compounds to both BD1 and BD2 of BRD2, BRD3, and BRD4 proteins. Equilibrium dissociation constants (Id) values of Cpd. […] Final Cpd. […] Kd values of Cpd.

With `COc1cc2c(cc1-c1c(C)noc1C)[nH]c1nc(C)nc(-c3ccc(NC(=O)N4CCN(C)CC4)c4ccccc34)c12` [US9675697, Cpd. No. 316], the Ki (in general, the dissociation constant of the complex between target and ligand, obtained from inhibition or displacement) is 2.9 nM.

In turn, `COc1cc2c(cc1-c1c(C)noc1C)[nH]c1nc(C)nc(-c3ccc(NC(=O)N4CCN(C5COC5)CC4)c4ccccc34)c12` [US9675697, Cpd. No. 317] displayed an inhibitory constant (Ki) of 7.1 nM.
